Converted amounts (≈) assume the structure as drawn.
How the values were obtained:
[1] = system: E. coli NCTC 8196; experiment: Determination of the bactericidal activity (logarithmic reduction in organism count); assay type: cell-based, Escherichia coli; details: contact for 30 minutes at a substance concentration of 120 μg/mL
[2] = system: S. choleraesuis ATCC 10708; experiment: as above; assay type: cell-based, Salmonella choleraesuis; details: contact for 30 minutes at a substance concentration of 120 μg/mL
Description: (§1) Determination of the Bactericidal Activity of Selected Compounds
(§2) Casein-soybean flour-peptone broth for preparation of pre-cultures of test bacteria
(§3) Examples of Test Organisms:
(§4) • Staphylococcus aureus ATCC 6538 • Escherichia coli ATCC 10536 • Salmonella choleraesuis ATCC 10708 Procedure:
(§5) The test substances are dissolved in dimethyl sulfoxide (DMSO) and tested in a concentration of 120 μg/ml.
(§6) Bacteria are incubated overnight in CASO broth and adjusted to an organism count of 1–5×10^5 CFU/ml using 0.85% sodium chloride solution.
(§7) The test substances are pre-pipetted into microtitre plates in amounts of 8 μl per well.
(§8) The adjusted test organism suspensions are added in amounts of 192 μl per well to the test substances and mixed. After defined contact times, the test batches are mixed, an aliquot is withdrawn and diluted in several steps in a dilution series of 1:10 in a suitable inactivation medium.
The test plates are incubated for 24 hours at 37° C. […]
(§9) One microtitre plate is used for each test organism.
(§10) All the substances are tested in duplicate.

[3] = system: S. aureus ATCC 6538; experiment: as above; assay type: cell-based, Staphylococcus aureus; details: contact for 30 minutes at a substance concentration of 120 μg/mL
Description: as §1, §2, §3, §4, §5, §6, §7, §8
The test plates are incubated for 24 hours at 37° C.
After incubation, the growth is determined on the basis of the turbidity of the test batches (optical density) at 620 nm in a microplate reader.
as §9, §10

[4] = system: Escherichia coli NCTC 8196; experiment: Minimum inhibitory concentration (MIC) in microtitre plates; assay type: cell-based; details: for Minimum inhibitory concentration (MIC) E. coli: Table 7, 48 hours at 37° C., MIC = ≦20% growth compared to control; for Minimum inhibitory concentration (MIC) E. coli NCTC 8196: Table 8, * = significant inhibition of growth, but not complete inhibition
Outline: (§11)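 Compounds in DMSO, 1:2 dilution series; bacteria at 1–5×10^6 CFU/ml diluted 1:100 in CASO broth. Incubation 48 h at 37° C, growth read as OD 620 nm. MIC is the lowest concentration giving ≤20% growth relative to control; duplicates.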

[5] = system: Staphylococcus hominis DMS 20328; experiment: as above; assay type: cell-based; details: Table 7; 48 hours at 37° C.; MIC = ≦20% growth compared to control
Outline: as §11

[6] = system: Micrococcus luteus ATCC 9341; experiment: Minimum inhibitory concentration (MIC), further microorganisms; assay type: cell-based; details: Table 8; * = significant inhibition of growth, but not complete inhibition
Outline: (§12)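 Broth microdilution in DMSO, 1:2 series; inocula adjusted to 1–5×10^6 CFU/ml then diluted 1:100 in CASO broth (bacteria, yeast) or Sabouraud 2% glucose broth (mould). Incubation 48 h at 37° C or 5 days at 28° C; MIC = lowest concentration giving ≦20% growth versus control by OD 620 nm.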

[7] = system: Trichophyton mentagrophytes ATCC 9533; experiment: as above; assay type: cell-based; details: Table 8; * = significant inhibition of growth, but not complete inhibition
Outline: as §12

[8] = system: Aspergillus niger ATCC 6275; experiment: as above; assay type: cell-based; details: Table 8; * = significant inhibition of growth, but not complete inhibition
Outline: as §12

[9] = system: Pseudomonas aeruginosa CIP A-22; experiment: as above; assay type: cell-based; details: Table 8
Outline: as §12

[10] = system: Epidermophyton floccosum DSM 10709; experiment: as above; assay type: cell-based; details: Table 8; * = significant inhibition of growth, but not complete inhibition
Outline: as §12

[11] = system: S. epidermidis ATCC 12228; experiment: as above; assay type: cell-based; details: Table 8; * = significant inhibition of growth, but not complete inhibition
Outline: as §12

[12] = system: Candida albicans ATCC 10231; experiment: as above; assay type: cell-based; details: Table 8; * = significant inhibition of growth, but not complete inhibition
Outline: as §12

[13] = system: Salmonella choleraesuis ATCC 10708; experiment: as above; assay type: cell-based; details: Table 8
Outline: as §12

[14] = system: Enterococcus hirae ATCC 10541; experiment: as above; assay type: cell-based; details: Table 8; * = significant inhibition of growth, but not complete inhibition
Outline: as §12

[15] = system: Klebsiella pneumonia ATCC 4352; experiment: as above; assay type: cell-based; details: Table 8; * = significant inhibition of growth, but not complete inhibition
Outline: as §12

[16] = system: Staphylococcus aureus ATCC 9144; experiment: as above; assay type: cell-based; details: Table 8; * = significant inhibition of growth, but not complete inhibition
Outline: as §12

Row | Compound | Logarithmic reduction in organism count, E. coli NCTC 8196 [1] | Logarithmic reduction in organism count, S. choleraesuis ATCC 10708 [2] | Logarithmic reduction in organism count, S. aureus ATCC 6538 [3] [log] | Minimum inhibitory concentration (MIC) E. coli [4] [µg/mL] | Minimum inhibitory concentration (MIC) E. coli NCTC 8196 [4] [µg/mL] | Minimum inhibitory concentration (MIC) S. hominis [5] [µg/mL] | Minimum inhibitory concentration (MIC) Micrococcus luteus ATCC 9341 [6] [µg/mL] | Minimum inhibitory concentration (MIC) Trichophyton mentagrophytes ATCC 9533 [7] [µg/mL] | Minimum inhibitory concentration (MIC) Aspergillus niger ATCC 6275 [8] [µg/mL] | Minimum inhibitory concentration (MIC) Pseudomonas aeruginosa CIP A-22 [9] [µg/mL] | Minimum inhibitory concentration (MIC) Epidermophyton floccosum DSM 10709 [10] | Minimum inhibitory concentration (MIC) S. epidermidis ATCC 12228 [11] | Minimum inhibitory concentration (MIC) Candida albicans ATCC 10231 [12] | Minimum inhibitory concentration (MIC) Salmonella choleraesuis ATCC 10708 [13] [µg/mL] | Minimum inhibitory concentration (MIC) Enterococcus hirae ATCC 10541 [14] | Minimum inhibitory concentration (MIC) Klebsiella pneumonia ATCC 4352 [15] [µg/mL] | Minimum inhibitory concentration (MIC) Staphylococcus aureus ATCC 9144 [16] [µg/mL]
1 | CCCCCCCCCCCCCCCNc1cc(C)nc(-c2ccccn2)n1 [Compound of formula 93] | ≦1 log | <1 log | 2 | – | – | – | – | – | – | – | – | – | – | – | – | – | –
2 | CCCCCCCCCCCNc1cc(C(C)C)nc(-c2ccccn2)n1 [Compound of formula 98] | 1–2 log | 2–3 log | 1 | – | – | – | – | – | – | – | – | – | – | – | – | – | –
3 | CCCCCCCCCCCCCCCNc1cc(C(C)C)nc(-c2ccccn2)n1 [Compound of formula 99] | ≦1 log | <1 log | 2 | – | – | – | – | – | – | – | – | – | – | – | – | – | –
4 | CCc1c(C)nc(-c2ccccn2)nc1NCCCCCCCCCCCCN [compound 7] | – | – | – | 120 (≈ 302 µM) | >60 | 120 (≈ 302 µM) | >60 | >30 | >30 | >60 | >30 µg/mL | >60 µg/mL | >60 µg/mL | >60 | >60 µg/mL | >60 | >60
5 | CCCCCCCCCCCCNc1nc(-c2ccccn2)nc(C)c1CC [compound 12] | – | – | – | 120 (≈ 314 µM) | >60 | 7.5 (≈ 19.6 µM) | <3.75 | 60 (≈ 157 µM) | >60 | >60 | *30 μg/mL | *7.5 μg/mL | *60 μg/mL | >60 | 7.5 µg/mL (≈ 19.6 µM) | >60 | 15 (≈ 39.2 µM)
6 | Cc1cc(NCCCCCCCCCN)nc(-c2ccccn2)n1 [compound 18] | – | – | – | >120 | >60 | 120 (≈ 366 µM) | >60 | >60 | >60 | >60 | >60 µg/mL | >60 µg/mL | >60 µg/mL | >60 | >60 µg/mL | >60 | >60
7 | Cc1cc(NCCCCCCCCCCCCN)nc(-c2ccccn2)n1 [compound 19] | – | – | – | 60 (≈ 162 µM) | >60 | 15 (≈ 40.6 µM) | 7.5 (≈ 20.3 µM) | >60 | >60 | >60 | >60 µg/mL | 60 µg/mL (≈ 162 µM) | 7.5 µg/mL (≈ 20.3 µM) | >60 | 60 µg/mL (≈ 162 µM) | >60 | 60 (≈ 162 µM)
8 | CCCCCCCCNc1cc(C)nc(-c2ccccn2)n1 [compound 21] | – | – | – | 60 (≈ 201 µM) | 120 (≈ 402 µM) | 3.75 (≈ 12.6 µM) | 120 (≈ 402 µM) | >60 | >60 | >120 | >60 µg/mL | 120 µg/mL (≈ 402 µM) | 120 µg/mL (≈ 402 µM) | >120 | 120 µg/mL (≈ 402 µM) | 120 (≈ 402 µM) | 120 (≈ 402 µM)
9 | CCCCCCCCCNc1cc(C)nc(-c2ccccn2)n1 [compound 22] | – | – | – | 120 (≈ 384 µM) | >60 | 3.75 (≈ 12 µM) | <3.75 | 15 (≈ 48 µM) | 60 (≈ 192 µM) | >60 | *7.5 μg/mL | <3.75 µg/mL | 15 µg/mL (≈ 48 µM) | >60 | <3.75 µg/mL | >60 | 7.5 (≈ 24 µM)
10 | CCCCCCCCCCCCNc1cc(C)nc(-c2ccccn2)n1 [compound 24] | – | – | – | 80 (≈ 226 µM) | >60 | 2.5 (≈ 7.05 µM) | <3.75 | >60 | >60 | >60 | 60 µg/mL (≈ 169 µM) | 3.75 µg/mL (≈ 10.6 µM) | 30 µg/mL (≈ 84.6 µM) | >60 | *15 μg/mL | >60 | <3.75
